pIC50: −log10 of the molar value.
Experiments:
KLK1 = KLK1 (Homo sapiens, UniProt P06870); assay: Inhibitory activity against KLK1 in vitro (biochemical assay)
Summary of the method: (§1)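 Compounds were dispensed acoustically from DMSO and tested in duplicate. IC50 values came from nonlinear regression curve fitting.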

plasma kallikrein (PKa) [1] = molecular target: T1, plasma kallikrein (PKa) (Homo sapiens, UniProt P03952); assay: Inhibitory activity against plasma kallikrein in vitro (fluorescence intensity enzyme assay, Pro-Phe-Arg-AMC substrate); type: biochemical; details: Pro-Phe-Arg-AMC substrate
T1 construct: purchased R & D 2497-SE
T1 sequence (P03952 391-638 limits assumed): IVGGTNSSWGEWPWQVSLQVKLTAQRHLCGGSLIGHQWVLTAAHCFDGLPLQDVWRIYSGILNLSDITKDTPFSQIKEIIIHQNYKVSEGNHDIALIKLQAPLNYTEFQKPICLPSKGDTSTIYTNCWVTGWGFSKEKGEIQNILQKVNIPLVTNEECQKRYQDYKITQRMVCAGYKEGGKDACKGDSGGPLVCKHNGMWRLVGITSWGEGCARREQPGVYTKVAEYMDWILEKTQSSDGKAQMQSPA
T1 sequence (P03952 20-390 partner limits assumed): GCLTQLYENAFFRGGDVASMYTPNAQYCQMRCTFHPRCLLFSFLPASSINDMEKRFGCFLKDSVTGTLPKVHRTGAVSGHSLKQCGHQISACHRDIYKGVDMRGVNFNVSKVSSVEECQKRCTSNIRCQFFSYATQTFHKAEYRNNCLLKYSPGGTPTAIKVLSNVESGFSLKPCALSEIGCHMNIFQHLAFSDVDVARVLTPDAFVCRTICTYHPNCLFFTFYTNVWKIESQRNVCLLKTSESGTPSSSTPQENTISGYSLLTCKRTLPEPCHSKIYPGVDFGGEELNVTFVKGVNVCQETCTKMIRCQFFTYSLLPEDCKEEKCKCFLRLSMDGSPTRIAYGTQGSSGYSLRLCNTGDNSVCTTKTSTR
Summary of the method: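 Fluorescence intensity enzyme assay with 10 nM enzyme and 60 µM Pro-Phe-Arg-AMC (final concentrations). Compounds in DMSO, tested in duplicate over a dose series. IC50 from nonlinear regression curve fitting.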

plasma kallikrein (PKa) [2] = molecular target: T1, plasma kallikrein (PKa); assay: PKa inhibition in kaolin-activated human platelet-poor plasma (PPP); type: biochemical; details: Pro-Phe-Arg-AMC substrate, fluorescence signal
Protocol: Test Example 2. Evaluation of the compounds of the present invention in terms of PKa Inhibition in Kaolin-Activated Human PPP: Platelet-poor plasma (PPP) obtained from human whole blood, anticoagulated with Na - Citrate, was incubated with various concentrations of the test compounds and 25, 75, 250, or 750 µg/mL kaolin in assay buffer for 20 minutes at 37°C, so that a concentration response of the test compounds was obtained with respect to various kaolin concentrations. The positive drug was diluted in accordance with the reference concentration and diluted 3-fold with the diluent as the first point.
50 nL of compounds were then transferred to a 384 assay plate containing 2 replicates per well. The 384 assay plate was centrifuged at 1000 rpm/min. 2.5 µL of human plasma working solution was added to each assay well. The 384 assay plate was centrifuged at 1000 RPM. 2.5 µL of kaolin working solution was added to each assay well. The 384 assay plate was centrifuged at 1000 RPM and incubated at 25°C for 20 minutes. 5 µL of Pro-Phe-Arg-AMC working solution was added to each assay well. The 384 assay plate was centrifuged at 1000 RPM and incubated at 25°C for 60 minutes. BMG reads the fluorescence signal.
The percent inhibition of the compound was calculated according to the following formula: [formula]

FXIa = FXIa (Homo sapiens, UniProt P03951); assay: Inhibitory activity against FXIa in vitro (biochemical assay)
Chain of FXIa (P03951 388-625 limits assumed): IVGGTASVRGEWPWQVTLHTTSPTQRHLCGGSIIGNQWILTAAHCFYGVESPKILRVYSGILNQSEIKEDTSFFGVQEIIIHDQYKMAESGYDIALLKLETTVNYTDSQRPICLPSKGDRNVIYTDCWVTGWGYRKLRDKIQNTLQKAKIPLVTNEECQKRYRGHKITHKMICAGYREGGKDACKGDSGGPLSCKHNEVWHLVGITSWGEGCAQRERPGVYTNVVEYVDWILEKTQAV
Chain of FXIa (P03951 19-387 partner limits assumed): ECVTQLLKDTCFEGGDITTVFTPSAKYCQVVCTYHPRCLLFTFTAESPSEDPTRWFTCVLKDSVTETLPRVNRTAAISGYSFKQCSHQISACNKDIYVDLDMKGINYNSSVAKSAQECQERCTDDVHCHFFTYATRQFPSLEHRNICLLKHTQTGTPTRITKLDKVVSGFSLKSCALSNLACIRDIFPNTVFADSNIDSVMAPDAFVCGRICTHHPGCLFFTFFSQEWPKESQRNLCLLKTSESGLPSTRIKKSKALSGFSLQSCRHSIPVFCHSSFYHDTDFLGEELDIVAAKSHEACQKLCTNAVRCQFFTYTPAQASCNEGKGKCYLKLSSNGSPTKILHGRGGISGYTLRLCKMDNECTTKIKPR
Summary of the method: as §1

[3] = plasma kallikrein enzyme assay, read-out: PKa IC50
[4] = PKa IC50, plasma kallikrein enzyme assay

Chain of KLK1 (P06870 25-262, species assumed): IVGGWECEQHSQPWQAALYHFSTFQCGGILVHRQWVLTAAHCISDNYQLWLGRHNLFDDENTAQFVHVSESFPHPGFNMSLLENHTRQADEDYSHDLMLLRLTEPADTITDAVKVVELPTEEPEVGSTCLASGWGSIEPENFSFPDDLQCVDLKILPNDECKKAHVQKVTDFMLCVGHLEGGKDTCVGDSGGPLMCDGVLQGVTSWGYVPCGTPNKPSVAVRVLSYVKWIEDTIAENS

| IC50 (KLK1; values given in µM) | pIC50 (plasma kallikrein (PKa) [1]; [3]) | pIC50 (plasma kallikrein (PKa) [2]) | IC50 (FXIa; values given in µM) | IC50 (KLK1; values in nM) | IC50 (FXIa; values in nM) | SMILES | pIC50 (plasma kallikrein (PKa) [1]; [4]) |
| --- | --- | --- | --- | --- | --- | --- | --- |
| > 10 µM | 8.66 | 7.25 | > 10 µM |  |  | N#Cc1cccc([C@@H](NCC2CC2)c2ccc(F)c(NC(=O)c3cc(C(F)(F)F)nn3-c3cccc(CN)c3)c2)c1 [Berotralstat, reference compound] |  |
| > 10 µM | 9.75 | 8.12 | > 10 µM |  |  | Cc1cc(N)nc(C)c1CNC(=O)c1cn(Cc2ccc(Cn3ccccc3=O)cc2)nn1 [Compound 1, N-((6-amino-2,4-dimethylpyridin-3-yl)methyl)-1-(4-((2-oxopyridin-1(2H)-yl)methyl)benzyl)-1H-1,2,3-triazole-4-carboxamide] |  |
| > 10 µM | 9.29 | 8.17 | > 10 µM |  |  | COCc1nn(Cc2ccc(Cn3ccccc3=O)cc2)cc1C(=O)NCc1c(C)cc(N)nc1C [Compound 2, N-((6-amino-2,4-dimethylpyridin-3-yl)methyl)-3-(methoxymethyl)-1-(4-((2-oxopyridin-1(2H)-yl)methyl)benzyl)-1H-pyrazole-4-carboxamide] |  |
| > 10 µM | 9.81 | 7.88 | > 10 µM |  |  | Cc1cc(N)nc(C)c1CNC(=O)c1nn(Cc2ccc(Cn3ccccc3=O)cc2)cc1C1CCCO1 (stereo not shown) [Compound 4, N-((6-amino-2,4-dimethylpyridin-3-yl)methyl)-1-(4-((2-oxopyridin-1(2H)-yl)methyl)benzyl)-4-(tetrahydrofuran-2-yl)-1H-pyrazole-3-carboxamide] |  |
|  | 10.52 | 8.22 |  | > 0.5 µM | > 0.5 µM | Cc1cc(N)nc(C)c1CNC(=O)c1ncn(Cc2ccc(Cn3ccccc3=O)cc2)n1 [Compound 11, N-((6-amino-2,4-dimethylpyridin-3-yl)methyl)-1-(4-((2-oxopyridin-1(2H)-yl)methyl)benzyl)-1H-1,2,4-triazole-3-carboxamide] |  |
|  | 9.67 | 8.12 |  | > 0.5 µM | > 0.5 µM | COCc1nn(Cc2ccc(Cn3cccn3)cc2)cc1C(=O)NCc1c(C)cc(N)nc1C [Compound 14, 1-(4-((1H-pyrazol-1-yl)methyl)benzyl)-N-((6-amino-2,4-dimethylpyridin-3-yl)methyl)-3-(methoxymethyl)-1H-pyrazol-4-carboxamide] |  |
| > 10 µM | 9.39 | 8.10 | > 10 µM |  |  | Cc1cc(N)nc(C)c1CNC(=O)c1cnc(Cc2cn3cc(C4CC4)ccc3n2)o1 [Compound 18] |  |
| > 10 µM | 9.20 | 7.63 | > 10 µM |  |  | Cc1cc(N)nc(C)c1CNC(=O)c1coc(Cc2cn3cc(C4CC4)ccc3n2)n1 [Compound 19] |  |
| > 10 µM | > 10.30 | 8.10 | > 10 µM |  |  | Cc1cc(N)nc(C)c1CNC(=O)c1ncn(Cc2ccc(Cn3cc(F)ccc3=O)cc2)n1 [Compound 23] |  |
| > 10 µM | 9.80 | 8.17 | > 10 µM |  |  | N=C(N)c1ccc(CNC(=O)c2coc(Cc3cn4cc(C5CC5)ccc4n3)n2)cc1 [Compound 37] |  |
| > 10 µM | > 10.30 | 7.13 | > 10 µM |  |  | COCc1nn(Cc2cn3cc(C4CC4)ccc3n2)cc1C(=O)NCc1ccc(C(=N)N)cc1 [Compound 39] |  |
|  | > 10.30 | 8.67 |  |  |  | N#Cc1cc(N2CC3C(C2)C3(F)F)ccc1Cn1cc(C(=O)NCc2ccc(C(=N)N)cc2)cn1 (stereo not shown) [Compound 40] |  |
| > 10 µM | 9.02 | 7.90 | > 10 µM |  |  | Nc1nccc2cc(CNC(=O)c3ncn(Cc4ccc(Cn5ccccc5=O)cc4)n3)ccc12 [Compound 76] |  |
| > 10 µM | 9.46 | 8.08 | > 10 µM |  |  | N=C(N)c1ccc(CNC(=O)c2cnn(Cc3ccc(CC4CC4)cc3)c2C(F)(F)F)cc1 [Compound 109] |  |
| > 10 µM | 9.80 | 7.83 | > 10 µM |  |  | Nc1noc2ccc(CNC(=O)c3cnn(Cc4ccc(Cn5ccccc5=O)cc4)c3)cc12 [Compound 214] |  |
| > 10 µM | 10.10 | 7.71 | > 10 µM |  |  | COCc1nn(Cc2ccc(Cn3ccccc3=O)cc2)cc1C(=O)NCc1ccc(C(=N)N)cc1F [Compound 241] |  |
| > 10 µM | 8.64 | 7.39 | > 10 µM |  |  | N=C(N)c1ccc(CNC(=O)c2cnn(Cc3ccc(CC4CC4)cc3)c2)cn1 [Compound 242] |  |
| > 10 µM | 10.22 |  | > 10 µM |  |  | N=C(N)c1ccc(CNC(=O)c2cnn(Cc3cnc(N4CC5C(C4)C5(F)F)c(F)c3)c2)cc1 (stereo not shown) [Compound 374] |  |
| > 10 µM | 9.07 |  | > 10 µM |  |  | COc1cc(Cn2cc(C(=O)NCc3ccc(C(=N)N)cc3)cn2)cc(OC)c1CC1CC1 [Compound 375] |  |

| IC50 (KLK1; values given in µM) | pIC50 (plasma kallikrein (PKa) [1]; [3]) | pIC50 (plasma kallikrein (PKa) [2]) | IC50 (FXIa; values given in µM) | IC50 (KLK1; values in nM) | IC50 (FXIa; values in nM) | SMILES | pIC50 (plasma kallikrein (PKa) [1]; [4]) |
| --- | --- | --- | --- | --- | --- | --- | --- |
| > 10 µM | 8.85 |  | > 10 µM |  |  | Cn1cnc2cnc(CNC(=O)c3cnn(Cc4ccc(Cn5ccccc5=O)cc4)c3)c(F)c21 [Compound 377] |  |
| > 10 µM | 8.85 |  | > 10 µM |  |  | Cn1ccc2cnc(CNC(=O)c3cn(Cc4ccc(Cn5ccccc5=O)cc4)nc3C(F)(F)F)c(F)c21 [Compound 378] |  |
| > 10 µM | 9.57 |  | > 10 µM |  |  | N=C(N)c1ccc(CNC(=O)c2cnn(Cc3cc(F)c(CC4CC4)c(F)c3)c2)cc1 [Compound 380] |  |
| > 10 µM | 10.52 |  | > 10 µM |  |  | Cc1cc(Cn2cc(C(=O)NCc3ccc(C(=N)N)cc3)cn2)cc(C)c1CC1CC1 [Compound 381] |  |
| > 10 µM | 9.82 |  | > 10 µM |  |  | N=C(N)c1ccc(CNC(=O)c2cnn(Cc3ccc(N4CC5C(C4)C5(F)F)c(C(F)(F)F)c3)c2)cc1 (stereo not shown) [Compound 382] |  |
| > 10 µM |  |  | > 10 µM |  |  | CN1CCc2cnc(CNC(=O)c3cnn(Cc4ccc(Cn5ccccc5=O)cc4)c3)c(F)c21 [Compound 383] | 8.86 |
| > 10 µM | 8.66 |  | > 10 µM |  |  | O=C(NCc1ncc2c(c1F)NCC2)c1cnn(Cc2ccc(Cn3ccccc3=O)cc2)c1 [Compound 384] |  |
| > 10 µM | 9.06 |  | > 10 µM |  |  | N=C(N)c1ccc(CNC(=O)c2cnn(Cc3ccc(OCC4CC4)c(C(F)(F)F)c3)c2)cc1 [Compound 385] |  |
| > 10 µM | 8.77 |  | > 10 µM |  |  | N=C(N)c1ccc(CNC(=O)c2cnn(Cc3ccc(OC4CCCC4)c(C(F)(F)F)c3)c2)cc1 [Compound 386] |  |
| > 10 µM | 10.10 |  | > 10 µM |  |  | N=C(N)c1ccc(CNC(=O)c2cnn(Cc3ccc(N4CCC(F)(F)CC4)c(C(F)(F)F)c3)c2)cc1 [Compound 387] |  |
| > 10 µM | 9.74 |  | > 10 µM |  |  | N=C(N)c1ccc(CNC(=O)c2cnn(Cc3ccc(N4CCOCC4)c(C(F)(F)F)c3)c2)cc1 [Compound 388] |  |
| > 10 µM | 8.84 |  | > 10 µM |  |  | CN1CCc2cnc(CNC(=O)c3cn(Cc4ccc(Cn5ccccc5=O)cc4)nc3C(F)(F)F)c(F)c21 [Compound 389] |  |
| > 10 µM | 8.69 |  | > 10 µM |  |  | O=C(NCc1ncc2c(c1F)NCC2)c1cn(Cc2ccc(Cn3ccccc3=O)cc2)nc1C(F)(F)F [Compound 390] |  |
| > 10 µM | 8.85 |  | > 10 µM |  |  | COCc1nn(Cc2ccc(Cn3ccccc3=O)cc2)cc1C(=O)NCc1ncc2c(c1F)N(C)CC2 [Compound 391] |  |
| > 10 µM | 8.61 |  | > 10 µM |  |  | COCc1nn(Cc2ccc(Cn3ccccc3=O)cc2)cc1C(=O)NCc1ncc2c(c1F)NCC2 [Compound 392] |  |
| > 10 µM | 8.98 |  | > 10 µM |  |  | N=C(N)c1ccc(CNC(=O)c2cnn(Cc3cc(Cl)c(C(=O)C4CC4)c(Cl)c3)c2)cc1 [Compound 393] |  |
| > 10 µM | 8.81 |  | > 10 µM |  |  | N=C(N)c1ccc(CNC(=O)c2cnn(Cc3cc(F)c(C(=O)C4CC4)c(F)c3)c2)cc1 [Compound 394] |  |
| > 10 µM | 8.77 |  | > 10 µM |  |  | O=C(NCc1ncc2c(c1F)OCC2)c1cnn(Cc2ccc(Cn3ccccc3=O)cc2)c1 [Compound 395] |  |
| > 10 µM | 8.68 |  | > 10 µM |  |  | COCc1nn(Cc2ccc(Cn3ccccc3=O)cc2)cc1C(=O)NCc1ncc2c(c1F)OCC2 [Compound 396] |  |

| SMILES | IC50 (KLK1; values given in µM) | pIC50 (plasma kallikrein (PKa) [1]; [3]) | pIC50 (plasma kallikrein (PKa) [2]) | IC50 (FXIa; values given in µM) | IC50 (KLK1; values in nM) | IC50 (FXIa; values in nM) | pIC50 (plasma kallikrein (PKa) [1]; [4]) |
| --- | --- | --- | --- | --- | --- | --- | --- |
| N=C(N)c1ccc(CNC(=O)c2cnn(Cc3ccc(Oc4ccccc4)cc3)c2)cc1 [Compound 128] | > 10 µM |  | 7.88 | > 10 µM |  |  | 9.25 |
| N=C(N)c1ccc(CNC(=O)c2cnn(Cc3ccc(OC4CC4)c(C(F)(F)F)c3)c2)cc1 [Compound 379] | > 10 µM |  |  | > 10 µM |  |  | 9.01 |
